Test results reported in the supplement of paper PMC10307832.

Tests used:
Assay in all cases: relative viability (nuclei count vs DMSO), 5 days (fraction); higher = more cells survive
[1] = compound: Cc1ccc(C(=O)Nc2ccc(CN3CCN(C)CC3)c(C(F)(F)F)c2)cc1C#Cc1cnc2cccnn12 [Ponatinib] + CS(=O)(=O)CCNCc1ccc(-c2ccc3ncnc(Nc4ccc(OCc5cccc(F)c5)c(Cl)c4)c3c2)o1 [Lapatinib] (partner 2 µM)
In short: (§1)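 One day after seeding in 1536-well plates, lung cancer cell lines were dosed by pin tool. Dosing was either single-drug or a fixed anchor-drug dose plus five library-drug doses (not always all listed) in √10 steps. After 5 days, nuclei were stained in one fix-and-stain step and counted on 4× images, and relative viability is the nuclei count of treated wells over that of vehicle wells, given as the median of duplicate plates.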

[2] = compound: Cc1ccc(C(=O)Nc2ccc(CN3CCN(C)CC3)c(C(F)(F)F)c2)cc1C#Cc1cnc2cccnn12 [Ponatinib] + C[C@]1(O)C[C@@H](c2nc(-c3ccc4ccc(-c5ccccc5)nc4c3)c3c(N)nccn32)C1 [Linsitinib] (partner 1 µM)
In short: as §1

[3] = compound: Cc1ccc(C(=O)Nc2ccc(CN3CCN(C)CC3)c(C(F)(F)F)c2)cc1C#Cc1cnc2cccnn12 [Ponatinib] + Cc1nc(NC(=O)N2CCC[C@H]2C(N)=O)sc1-c1ccnc(C(C)(C)C(F)(F)F)c1 [Alpelisib] (partner 2 µM)
In short: as §1

[4] = compound: Cc1ccc(Nc2nccc(N(C)c3ccc4c(C)n(C)nc4c3)n2)cc1S(N)(=O)=O [Pazopanib] + CC(=O)Nc1cccc(-n2c(=O)n(C3CC3)c(=O)c3c(Nc4ccc(I)cc4F)n(C)c(=O)c(C)c32)c1 [Trametinib] (partner 0.02 µM)
In short: as §1

**Q.** Which relative viability ([1]; first compound 0.002 µM) does the source give for UMC-11 here?
**A.** Its relative viability is 1.

**Q.** And the relative viability ([1]; first compound 0.006325 µM)?
**A.** Its relative viability is 1.05.

**Q.** And the relative viability ([1]; first compound 0.06325 µM)?
**A.** Its relative viability is 1.17.

**Q.** And the relative viability ([1]; first compound 0.2 µM)?
**A.** Its relative viability is 0.988.

**Q.** And the relative viability ([2]; first compound 0.002 µM)?
**A.** Its relative viability is 1.02.

**Q.** What about the relative viability ([2]; first compound 0.006325 µM) of the same cell line?
**A.** Its relative viability is 1.03.

**Q.** And the relative viability ([2]; first compound 0.06325 µM)?
**A.** The relative viability was 1.16.

**Q.** What about the relative viability ([2]; first compound 0.2 µM) of the same cell line?
**A.** The relative viability was 1.03.

**Q.** And the relative viability ([3]; first compound 0.002 µM)?
**A.** Its relative viability is 1.07.

**Q.** What about the relative viability ([3]; first compound 0.006325 µM) of the same cell line?
**A.** Its relative viability is 1.04.

**Q.** What about the relative viability ([3]; first compound 0.06325 µM) of the same cell line?
**A.** Its relative viability is 1.01.

**Q.** What about the relative viability ([3]; first compound 0.2 µM) of the same cell line?
**A.** The relative viability was 0.951.

**Q.** What about the relative viability ([4]; first compound 0.01 µM) of the same cell line?
**A.** The relative viability was 0.552.

**Q.** And the relative viability ([4]; first compound 0.03162 µM)?
**A.** Its relative viability is 0.732.

**Q.** What about the relative viability ([4]; first compound 0.1 µM) of the same cell line?
**A.** The relative viability was 0.672.

**Q.** And the relative viability ([4]; first compound 0.3162 µM)?
**A.** Its relative viability is 0.756.

**Q.** What about the relative viability ([4]; first compound 1 µM) of the same cell line?
**A.** Its relative viability is 0.846.
